According to article PMC11093748, “De novo identification of CD4^+ T cell epitopes” (Nature Methods, 2024):

How the values were obtained:
Assay in all cases: I-Ag7 SABR-II library screen, enrichment score
Assay type in all cases: cell-based, mouse
[1] = test system: TCR11; conditions: for Enrichment score: TCR11, TCR_Mean minus PREDICTED_TCR (from LIB_Mean, SLOPE 0.869084, INTERCEPT 3.21267e-5), PZ51
Text: (§1) We then asked whether SABR-IIs could be used to present a library of epitopes for CD4^+ T cell antigen discovery. To that end, we constructed a SABR-II library to present epitopes derived from pancreatic islets in I-Ag7 by curating a list of 4,075 published epitopes from the Immune Epitope Database (iedb.org)[50] and a study by Wan et al.[51] (Supplementary Table 1). Of note, this defined library consisted of unmodified epitopes from endogenous proteins, synthetic mimotopes, deamidated epitopes and hybrid insulin peptides (HIPs) that arise from post-translational fusion and are not genetically encoded in vivo[52],[53]. The epitope library was inserted into the I-Ag7 SABR-II backbone through pooled oligonucleotide synthesis, amplification and ligation-free cloning (Extended Data Fig. 3a). The I-Ag7 SABR-II-library was then expressed in NFAT–GFP Jurkat cells. We confirmed that after sequencing, the library accounted for a mean of 708 reads per epitope (Extended Data Fig. 3b). As a proof of concept, we performed co-incubation assays with Jurkat cells expressing the BDC2.5 TCR and sorted the top 1–2% of GFP^+CD69^+ cells at a rate of ~20 min per replicate with three replicates per TCR. We extracted the genomic DNA from sorted cells, amplified the SABR portion of the integrated proviruses and subjected the amplicons to Illumina sequencing (Extended Data Fig. 3c,d). The 1–2% sort gate represents >50-fold enrichment of cognate epitopes with minimal loss of signal (Extended Data Fig. 3e–h). Sequence reads were aligned to the I-Ag7 SABR-II backbone and the corresponding epitopes were scored based on their read counts. For each TCR under investigation, an enrichment score (ES) was determined for all the epitopes in a library. In each experiment, three replicates of a sort with TCR-expressing Jurkat cells were performed and reads were counted post-sequencing. In addition, three replicates of the unsorted library were also sequenced. A linear regression model was built using the unsorted library counts and used to determine the expected abundance of each epitope in the library. The ES was calculated based on the difference between the measured and the expected abundance of each epitope on a per-TCR basis (Fig. 1e). Based on ES values, two quantitative thresholds were used to determine putative cognate epitopes of a given TCR. A high-confidence zone containing clear outliers with a high ES and a low-confidence zone containing weak outliers with a moderately high ES were determined (Fig. 1e). This two-tiered strategy was used to call putative hits from screens. All the top-scoring epitopes for the BDC2.5 TCR were known BDC2.5 ligands containing the WXRM(D/E) motif (Fig. 1f,g, enriched ligands in red), a well-characterized trait of the BDC2.5 TCR[43],[54]–[56]. Across several independent experiments there was limited variation in ES values for the same TCRs and several epitopes fell into high- or low-confidence zones consistently (Extended Data Fig. 4a). Using a different TCR that was isolated from NOD mice, 4-8Ins[57], which recognized the InsB9:23 epitope ([…]), we observed a similar pattern of ES for cognate epitopes (Extended Data Fig. 4b).
(§2) We performed systematic screening of the cloned TCRs against the I-Ag7 SABR-II library. Several TCRs along with a positive control (such as BDC2.5 or 4-8Ins) were screened individually against the library for each sort (Extended Data Fig. 6a and Supplementary Table 4). High- and low-confidence ES zones for each screened TCR were defined by the ES values of the control TCR’s cognate epitopes. For all putative cognate epitopes, single SABR-IIs were constructed, expressed in NFAT–GFP Jurkat cells and used for co-incubation with the corresponding TCRs. Co-incubation assays that yielded a GFP signal higher than that obtained in assays with no TCR were determined to be positive and the epitopes deemed true cognate ligands (Extended Data Fig. 6b,c). […]

[2] = test system: TCR15; conditions: for Enrichment score: TCR15, TCR_Mean minus PREDICTED_TCR (from LIB_Mean, SLOPE 0.918454, INTERCEPT 2.00113e-5), PZ37
Text: as §1, §2

[3] = test system: TCR24; conditions: for Enrichment score: TCR_Mean minus PREDICTED_TCR (slope 0.96363, intercept 8.9252e-6 on LIB_Mean), TCR 24, run PZ98
Text: as §1, §2

[4] = test system: TCR30; conditions: for Enrichment score: TCR_Mean minus PREDICTED_TCR (slope 0.934363, intercept 1.61073e-5 on LIB_Mean), TCR 30, run PZ98
Text: as §1, §2

[5] = test system: TCR37; conditions: for Enrichment score: TCR_Mean minus PREDICTED_TCR (slope 0.904637, intercept 2.34021e-5 on LIB_Mean), TCR 37, run PZ57
Text: as §1, §2

[6] = test system: TCR4; conditions: for Enrichment score: sheet TCR4-PZ44, ES = TCRObserved - TCRPredicted, TCRPredicted = LIBObserved x SLOPE + INTERCEPT, SLOPE 0.903208, INTERCEPT 2.37527e-5
Text: as §1, §2

Sequence | Enrichment score [1] | Enrichment score [2] | Enrichment score [3] | Enrichment score [4] | Enrichment score [5] | Enrichment score [6] | recognition by TCR (screen hit, validated by single SABR-II co-incubation) ([2]; high-confidence zone) | recognition by TCR (screen hit, validated by single SABR-II co-incubation) ([6]; high-confidence zone) | recognition by TCR (screen hit, validated by single SABR-II co-incubation) ([1]; low-confidence hit) | recognition by TCR (screen hit, validated by single SABR-II co-incubation) ([3]; high-confidence zone) | recognition by TCR (screen hit, validated by single SABR-II co-incubation) ([4]; low-confidence hit) | recognition by TCR (screen hit, validated by single SABR-II co-incubation) ([5]; high-confidence zone)
AAVEEGIVAGGGVTLL | 9.192e-5 | -0.000165 | 0.0001615 | -2.605e-6 | -4.879e-5 | 3.881e-5 | – | – | – | – | – | –
AEKVRNLPAGHGLNAQ | 0.0002492 | 0.000168 | 0.0001713 | 0.0001445 | 0.0002899 | -5.549e-7 | – | – | – | – | – | –
AGGVAVIKAGAATEV | -2.692e-5 | 2.956e-5 | -1.094e-5 | -2.42e-5 | -0.0001031 | 2.046e-5 | – | – | – | – | – | –
AKAAVEEGIVAGGGV | 0.0001401 | 1.733e-5 | 2.968e-5 | 8.616e-5 | -6.503e-5 | -0.0001441 | – | – | – | – | – | –
ALVREGLRNVAAGANP | -3.213e-5 | -2.061e-5 | -8.9252e-6 | -1.611e-5 | -2.34e-5 | -2.375e-5 | – | – | – | – | – | –
LQTLALNAARDP | – | – | – | – | – | – | recognized | recognized | – | – | – | –
SHLVEALYLVCGERG | – | – | – | – | – | – | – | – | confirmation of reactivity | recognized | confirmation of reactivity | recognized
